Experiments:
[1] = target: T1, Steroid 17-alpha-hydroxylase/17,20 lyase (Homo sapiens, UniProt P05093); test: Inhibition of human CYP17A1 lyase activity; assay type: ADME
T1 sequence (P05093 whole entry): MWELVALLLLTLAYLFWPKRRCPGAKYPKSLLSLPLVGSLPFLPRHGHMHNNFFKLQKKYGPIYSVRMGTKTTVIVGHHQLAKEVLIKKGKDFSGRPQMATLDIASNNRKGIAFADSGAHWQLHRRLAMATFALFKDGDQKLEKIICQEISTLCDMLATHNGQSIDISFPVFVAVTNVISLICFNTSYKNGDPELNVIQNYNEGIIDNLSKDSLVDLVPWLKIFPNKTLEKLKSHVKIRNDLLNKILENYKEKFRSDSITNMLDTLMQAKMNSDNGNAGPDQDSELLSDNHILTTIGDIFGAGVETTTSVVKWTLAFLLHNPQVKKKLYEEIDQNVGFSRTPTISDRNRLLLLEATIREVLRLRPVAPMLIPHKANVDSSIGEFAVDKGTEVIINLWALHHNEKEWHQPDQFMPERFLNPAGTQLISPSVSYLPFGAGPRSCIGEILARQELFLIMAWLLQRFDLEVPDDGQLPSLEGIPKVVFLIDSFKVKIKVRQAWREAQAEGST

[2] = target: T2, Steroid 17-alpha-hydroxylase/17,20 lyase (Macaca fascicularis, UniProt Q2XVA1); test: In vivo inhibition of CYP17A1 in cynomolgus monkey assessed as increase in progesterone level in blood at 1 mg/kg, po measured at 4 hrs; assay type: functional, organism-based
T2 sequence (Q2XVA1 whole entry): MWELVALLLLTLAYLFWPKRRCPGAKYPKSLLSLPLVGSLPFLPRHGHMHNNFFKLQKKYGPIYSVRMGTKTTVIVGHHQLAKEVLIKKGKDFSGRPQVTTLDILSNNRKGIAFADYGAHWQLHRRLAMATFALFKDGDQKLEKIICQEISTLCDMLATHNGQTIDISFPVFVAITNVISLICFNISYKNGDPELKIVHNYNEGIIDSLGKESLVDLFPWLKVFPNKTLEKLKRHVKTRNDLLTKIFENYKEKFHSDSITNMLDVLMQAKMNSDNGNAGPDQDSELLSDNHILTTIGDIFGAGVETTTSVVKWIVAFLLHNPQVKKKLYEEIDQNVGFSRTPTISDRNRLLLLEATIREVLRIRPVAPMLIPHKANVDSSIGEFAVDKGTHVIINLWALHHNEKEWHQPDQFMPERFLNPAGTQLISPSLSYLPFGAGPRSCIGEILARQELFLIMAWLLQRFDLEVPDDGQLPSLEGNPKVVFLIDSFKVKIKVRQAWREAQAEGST

[3] = Metabolic stability in cynomolgus monkey liver microsome assessed as half-life; assay type: ADME, Macaca fascicularis; settings: liver microsomes
[4] = Metabolic stability in human liver microsomes assessed as parent compound remaining relative to control; assay type: ADME, Microsome
[5] = Inhibition of cynomolgus monkey CYP11B1; assay type: ADME, Macaca fascicularis
[6] = target: T2, Steroid 17-alpha-hydroxylase/17,20 lyase; test: In vivo inhibition of CYP17A1 in cynomolgus monkey assessed as fold increase in progesterone level in blood at 1 mg/kg, po measured upto 24 hrs; assay type: functional, organism-based
[7] = target: T2, Steroid 17-alpha-hydroxylase/17,20 lyase; test: In vivo inhibition of CYP17A1 in cynomolgus monkey assessed as decrease in testosterone level in blood at 1 mg/kg, po measured upto 24 hrs relative to control; assay type: functional, organism-based; set-up: scale not given: the % may be the effect or the level left
[8] = target: T2, Steroid 17-alpha-hydroxylase/17,20 lyase; test: In vivo inhibition of CYP17A1 in cynomolgus monkey assessed as fold increase in hydroxyprogesterone level in blood at 1 mg/kg, po measured upto 24 hrs; assay type: functional, organism-based
[9] = target: T1, Steroid 17-alpha-hydroxylase/17,20 lyase; test: Inhibition of human CYP17A1 hydroxylase activity; assay type: ADME
[10] = Half-life in cynomolgus monkey at 1 mg/kg, iv; assay type: ADME, organism-based, Macaca fascicularis; settings: in vivo
[11] = target: Cytochrome P450 3A4 (Homo sapiens, UniProt P08684); test: Inhibition of recombinant human CYP3A4; assay type: ADME
Sequence of Cytochrome P450 3A4 (P08684 whole entry): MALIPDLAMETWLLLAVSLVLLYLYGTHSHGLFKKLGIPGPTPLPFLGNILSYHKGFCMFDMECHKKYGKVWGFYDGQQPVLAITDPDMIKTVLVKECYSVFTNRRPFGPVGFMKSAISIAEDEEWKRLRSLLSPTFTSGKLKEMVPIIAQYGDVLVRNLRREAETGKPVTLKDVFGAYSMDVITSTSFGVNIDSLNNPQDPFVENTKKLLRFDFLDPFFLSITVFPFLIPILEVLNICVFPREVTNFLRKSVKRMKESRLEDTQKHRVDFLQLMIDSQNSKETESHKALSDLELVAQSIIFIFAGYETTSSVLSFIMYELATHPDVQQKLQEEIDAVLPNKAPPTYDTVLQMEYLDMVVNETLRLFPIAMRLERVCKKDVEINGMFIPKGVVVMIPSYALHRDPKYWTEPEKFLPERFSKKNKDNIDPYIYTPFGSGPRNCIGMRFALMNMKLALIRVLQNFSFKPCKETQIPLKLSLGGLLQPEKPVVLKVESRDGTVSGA

[12] = Clearance in cynomolgus monkey at 1 mg/kg, iv; assay type: ADME, organism-based, Macaca fascicularis; settings: in vivo
[13] = Permeability across apical to basolateral side in human Caco-2 cells; assay type: ADME, cell-based; settings: read-out: permeability

Nc1ncncc1-c1ccnc2c1cnn2-c1ccc(F)cc1
IC50 [1]: 8 nM
Activity [2]: 27 ng/dL
half-life [3]: > 2 h
Stability [4]: 100%
IC50 [5]: > 10000 nM
fold change (FC) [6]: 14
Activity [7]: 83%
fold change (FC) [8]: 14
IC50 [9]: 91 nM
half-life [10]: 16 h
IC50 [11]: 36000 nM
clearance [12]: 2.8 mL/min/kg
Papp A→B [13]: 28.2 ×10⁻⁶ cm/s
